Reference: patent US7763426B2, “Probes and methods for detection of Escheridia coli and antibiotic resistance” (priority 2004, dated 2010)
{Fluorescein} = fluorescein label (binding site for anti-fluorescein Fab-HRP); {Biotin} = biotin (capture probe anchor)

System: bacterial 16S rRNA
Assay: Clinical validity study: UTI Chip on blinded clinical urine specimens
Format: binding
Experimental: Amperometric detection of bacterial 16S rRNA. An overview of the electrochemical sensor detection strategy is presented in panel C of FIG. 1. One ml of bacteria in Luria broth, inoculated clean urine, or clinical urine samples was centrifuged at 10,000×g for 5 min. The supernatant was discarded and the bacteria were lysed by resuspension of the pellet in 10 μl of 1 M NaOH and incubation at room temperature for 5 min. In some experiments, addition of 1M NaOH was preceded by resuspension of the bacterial pellet in 10 μl of 0.1% Triton X-100, 2 mM EDTA, and 1 mg/ml lysozyme (Sigma) in 20 mM Tris-HCl, pH 8.0, and incubation at room temperature for 5 min. 50 μl of the detector probe (0.25 μM) in 2.5% bovine serum albumin (Sigma, St. Louis, Mo.) 1 M phosphate buffer, pH 7.4, were added to the bacterial lysate and incubated for 10 min at 65° C. to allow target-probe hybridization. 4 μl of the bacterial lysate/detector probe mixture was deposited on each of the working electrodes in the sensor array and incubated for 15 min at 65° C. in a humidified chamber. After washing and drying, 4 μl of 0.5 U/ml anti-fluorescein horseradish peroxidase (HRP) Fab fragments (Roche, diluted in 0.5% casein in 10 mM phosphate buffered saline, pH 7.4) were deposited on each of the working electrodes for 15 min. After washing and drying, a prefabricated plastic well manifold (GeneFluidics, Monterey Park, Calif.) was bonded to the sensor array. The sensor array was put into the chip reader (FIG. 18) and 50 μl of 3,3′,5,5′-tetramethylbenzidine (TMB), H2O2 solution (K-Blue Low Activity TMB Substrate, Neogen, Lexington, Ky.) was placed on each of the sensors in the array so as to cover all three electrodes of each sensor. Electrochemical measurements are immediately and simultaneously taken for all 16 sensors. For each array, negative control (NC) sensors were tested including the UNI capture probe, detector probe, and 2.5% bovine serum albumin (Sigma, St, Louis, Mo.) in 1 M phosphate buffer, pH 7.4, instead of bacterial lysate. The entire assay protocol was completed within 45 min from the time when bacterial lysis was commenced. Amperometric current vs. time was measured using a multichannel potentiostat (GeneFluidics). The voltage was fixed at −200 mV (vs. reference), and the electroreduction current was measured at 60 s after the HRP redox reaction reached steady state.
Clinical validity study design. Clinical urine specimens were received from routine urine cultures collected from inpatients and outpatients and submitted to the UCLA Clinical Microbiology Laboratory. Routine plating on tripticase soy agar with 5% sheep blood was performed on each specimen for phenotypic identification and colony counting while an aliquot of each specimen was held at 4° C. overnight. On the day after plating, specimens were selected for inclusion in the study on the basis of a rapid indole test for the purpose of including uropathogens other than Escherichia coli in approximately one-half of the specimens. The other half of the specimens were divided between E. coli-containing specimens and specimens determined to have ““no significant growth” or no growth” (see definitions below). Because most UTIs involve a single uropathogen, specimens determined by the clinical microbiology laboratory to have more than one organism present were excluded. Blinded specimens selected for inclusion in the study were stripped of patient identifiers and any microbiological data before delivery to the research laboratory for testing with the electrochemical sensor array.
Experiments were performed on all specimens using the 16-sensor array ‘UTI Chip’, in which the UNI, EB, EC, PM, KE, PA, and EF capture probes (defined in Tables 1 and 2) were tested in duplicate. The two remaining sensors served as negative controls (including capture and detector probes without bacterial lysate). […]

[1] = No Significant Growth specimens
[2] = specimens with Citrobacter freundii
[3] = specimens with Citrobacter koseri
[4] = specimens with Enterobacter aerogenes
[5] = specimens with Enterobacter cloacae
[6] = specimens with Enterobacteriaceae
[7] = specimens with Enterococcus species
[8] = specimens with Escherichia coli
[9] = specimens with Gram-negative bacteria
[10] = specimens with Gram-positive bacteria
[11] = specimens with Klebsiella pneumoniae
[12] = specimens with Proteus mirabilis
[13] = specimens with Pseudomonas aeruginosa
[14] = specimens with Serratia marcescens
[15] = specimens with Staph. saprophyticus

## UNI: Universal Bacterial probe pair: capture 797 (27 mer) SEQ ID NO: 13, detector 766 (31 mer) SEQ ID NO: 14 (DNA 1 CATCGTTTACGGCGTGGACTACCAGGG; DNA 2 TATCTAATCCTGTTTGCTCCCCACGCTTTCG; DNA 1: DNA, 5' {Biotin}, backbone and methylation of C not given here; DNA 2: DNA, 5' {Fluorescein}, backbone and methylation of C not given here)
  sensitivity for detection of Gram-negative bacteria in clinical urine specimens: 100%
10/12 no growth specimens
  specificity: 83%
54/58, 0.30 log unit threshold
  overall sensitivity for detection of uropathogens in clinical urine specimens: 93%
All specimens with bacteria
  Mean (range): 1.28 (0.33-1.84) log10 units over background
  Positive/Total = Percent: 54/58 = 93%
No Growth specimens
  Mean (range): 0.38 (0.34-0.42) log10 units over background
  Positive/Total = Percent: 2/12 = 17%
[1]
  Mean (range): 0.42 (0.31-0.57) log10 units over background
  Positive/Total = Percent: 5/3 = 63%
[2]
  Mean (range): 1.49 (1.43-1.55) log10 units over background
  Positive/Total = Percent: 2/2 = 100%
[3]
  Mean (range): 1.23 log10 units over background
  Positive/Total = Percent: 1/1 = 100%
[4]
  Mean (range): 1.35 (0.93-1.65) log10 units over background
  Positive/Total = Percent: 5/5 = 100%
[5]
  Mean (range): 1.43 log10 units over background
  Positive/Total = Percent: 1/1 = 100%
[6]
  Mean (range): 1.32 (0.40-1.84) log10 units over background
  Positive/Total = Percent: 47/47 = 100%
[7]
  Mean (range): 0.92 (0.33-1.78) log10 units over background
  Positive/Total = Percent: 5/8 = 63%
[8]
  Mean (range): 1.30 (0.54-1.77) log10 units over background
  Positive/Total = Percent: 26/26 = 100%
[9]
  Mean (range): 1.32 (0.40-1.84) log10 units over background
  Positive/Total = Percent: 48/48 = 100%
[10]
  Mean (range): 0.95 (0.33-1.78) log10 units over background
  Positive/Total = Percent: 6/10 = 60%
[11]
  Mean (range): 1.22 (0.40-1.84) log10 units over background
  Positive/Total = Percent: 8/8 = 100%
[12]
  Mean (range): 1.41 (1.16-1.66) log10 units over background
  Positive/Total = Percent: 3/3 = 100%
[13]
  Mean (range): 1.33 log10 units over background
  Positive/Total = Percent: 1/1 = 100%
[14]
  Mean (range): 1.67 log10 units over background
  Positive/Total = Percent: 1/1 = 100%
[15]
  Mean (range): 1.10 log10 units over background
  Positive/Total = Percent: 1/2 = 50%
